What all share (type): biochemical
Test [1] has as its target T1, TmPep1050 (Thermotoga maritima, UniProt Q9X0E0).
T1 construct: gene TM_1050; recombinant TmPep1050 (TM1050 ORF)
T1 sequence (Q9X0E0 1-331): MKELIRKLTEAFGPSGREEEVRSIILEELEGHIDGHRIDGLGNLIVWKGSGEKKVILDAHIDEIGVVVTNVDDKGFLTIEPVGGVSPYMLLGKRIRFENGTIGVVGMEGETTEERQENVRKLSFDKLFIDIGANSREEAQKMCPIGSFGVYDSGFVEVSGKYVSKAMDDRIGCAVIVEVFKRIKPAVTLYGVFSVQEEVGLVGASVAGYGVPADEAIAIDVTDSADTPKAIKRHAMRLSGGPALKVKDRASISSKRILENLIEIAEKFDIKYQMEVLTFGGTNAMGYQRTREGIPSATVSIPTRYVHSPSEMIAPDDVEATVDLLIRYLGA
As to the kind of experiment: specific activity of pNA hydrolysis at […] substrate.

For test [2], the target named is T2, CelM (Acetivibrio thermocellus, UniProt P55742).
T2 construct: recombinant CelM bearing a C-terminal hexahistidine tag
T2 sequence (P55742 1-330): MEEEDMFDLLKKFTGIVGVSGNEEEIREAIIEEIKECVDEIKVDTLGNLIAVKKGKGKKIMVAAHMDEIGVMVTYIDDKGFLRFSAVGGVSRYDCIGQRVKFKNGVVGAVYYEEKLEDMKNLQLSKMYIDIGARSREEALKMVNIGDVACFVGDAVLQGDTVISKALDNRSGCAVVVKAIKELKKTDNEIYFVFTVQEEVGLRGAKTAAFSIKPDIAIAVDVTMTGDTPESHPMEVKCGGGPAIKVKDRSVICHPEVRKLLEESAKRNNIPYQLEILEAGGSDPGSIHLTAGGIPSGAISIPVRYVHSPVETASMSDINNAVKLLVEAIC
The test is described as follows: specific activity of pNA hydrolysis at […] substrate.

Test [3] concerns the target T1, TmPep1050. As to the kind of experiment: inhibition of leucine aminopeptidase activity of purified enzyme, apparent Ki.
Test [4] concerns the target T2, CelM. The description is as above.

The structures appear in SMILES notation.

As to `CC(C)[C@H](N)C(=O)Nc1ccc([N+](=O)[O-])cc1` [L-Val-pNA], the TmPep1050 sp act on TmPep1050 [1] is 14.3±1.8 µmol min^−1 µmol^−1. This compound had a CelM sp act at CelM [2] of 8.4±0.016 µmol min^−1 µmol^−1.
Regarding `CC(C)C[C@H](NC(=O)[C@@H](O)[C@H](N)Cc1ccccc1)C(=O)O` [bestatin], the Ki was 432 ± 72 nM at TmPep1050 [3] and 292 ± 66 nM at CelM [4].

Source of the values: PMC3511314, “Functional Characterization of Two M42 Aminopeptidases Erroneously Annotated as Cellulases” (PLoS ONE, 2012).
